The source made the active and inactive calls. The rule behind the calls is not given here.
target: alkaline phosphatase, placental type (human); assay: PLAP enzyme inhibition by analogs, SAR follow-up, selectivity assay for mouse IAP inhibitor project, biochemical, human PLAP isozyme, set 2 (AID 588641); details: purified human placental alkaline phosphatase, enzyme activity

| Compound | IC50 |
| --- | --- |
| Cc1ccc(C)c(NC(=O)CCNS(=O)(=O)c2ccc3c(c2)CCC3)c1 | > 100 µM (inactive) |
| O=C(N/N=C/c1ccc(Br)cc1F)c1cc(O)ccc1O | > 100 µM (inactive) |
| O=C(NCc1ccccc1)C1CCCN(S(=O)(=O)c2ccc3[nH]c(=O)oc3c2)C1 (centres undefined) | > 100 µM (inactive) |
| O=C(CCNS(=O)(=O)c1ccc2[nH]c(=O)oc2c1)NCCc1ccc(O)cc1 | > 100 µM (inactive) |
| N#Cc1ccc(NS(=O)(=O)c2ccc3[nH]c(=O)oc3c2)cc1 | > 100 µM (inactive) |
| CC(C)(C)c1ccc(/C=N/NC(=O)c2cc(O)c(O)c(O)c2)cc1 | 60.8 µM |
| O=C(N/N=C/c1ccccc1C(F)(F)F)c1cc(O)c(O)c(O)c1 | > 100 µM (inactive) |
| O=C(CCNS(=O)(=O)c1ccc2[nH]c(=O)oc2c1)NCCc1ccc2c(c1)OCO2 | > 100 µM (inactive) |
| O=C(N/N=C/c1c(F)cccc1Cl)c1ccc(O)cc1 | > 100 µM (inactive) |
| COc1cccc(CNC(=O)CCNS(=O)(=O)c2ccc3[nH]c(=O)oc3c2)c1 | > 100 µM (inactive) |
| COc1ccc(CCNC(=O)CCCNS(=O)(=O)c2ccc3[nH]c(=O)oc3c2)cc1OC | > 100 µM (inactive) |
| O=C(CCNS(=O)(=O)c1ccc2[nH]c(=O)oc2c1)NCc1ccccc1Cl | > 100 µM (inactive) |
| COc1ccc(C(=O)N/N=C/c2ccccc2F)cc1 | > 100 µM (inactive) |
| O=C(N/N=C/c1ccccc1F)c1ccc(O)cc1O | > 100 µM (inactive) |
| Cc1ccc(C)c(NS(=O)(=O)c2ccc3[nH]c(=O)oc3c2)c1 | > 100 µM (inactive) |
| O=C(CNS(=O)(=O)c1ccc2[nH]c(=O)oc2c1)NCCc1ccc2c(c1)OCO2 | > 100 µM (inactive) |
| COc1ccc(/C=N/NC(=O)c2cc(O)c(O)c(O)c2)cc1OC | > 100 µM (inactive) |
| COc1ccc(CCNC(=O)CCCNS(=O)(=O)c2ccc3[nH]c(=O)oc3c2)cc1 | > 100 µM (inactive) |
| COc1ccc(NC(=O)CCNS(=O)(=O)c2ccc3c(c2)CCC3)cc1OC | > 100 µM (inactive) |
| COc1ccc(/C=N\NC(=O)c2cc(O)c(O)c(O)c2)cc1CN1CCN(c2ccc(F)cc2)CC1 | > 100 µM (inactive) |
| O=C(CCS(=O)(=O)Nc1ccc2[nH]c(=O)oc2c1)NCc1ccccc1Cl | > 100 µM (inactive) |
| N#Cc1cccc(NS(=O)(=O)c2ccc3[nH]c(=O)oc3c2)c1 | > 100 µM (inactive) |
| COc1cc(C(=O)N/N=C/c2c(F)cccc2Cl)cc(OC)c1OC | > 100 µM (inactive) |
| N#Cc1cccc(NC(=O)CNS(=O)(=O)c2ccc3[nH]c(=O)oc3c2)c1 | > 100 µM (inactive) |
| O=C(N/N=C/c1cccc(Cl)c1Cl)c1cc(O)c(O)c(O)c1 | > 100 µM (inactive) |
| O=C(CCCNS(=O)(=O)c1ccc2[nH]c(=O)oc2c1)NCc1cccc(F)c1 | > 100 µM (inactive) |
| O=C(CCNS(=O)(=O)c1ccc2[nH]c(=O)oc2c1)NCc1ccccc1F | > 100 µM (inactive) |
| COc1ccc(CNS(=O)(=O)c2ccc3[nH]c(=O)oc3c2)cc1 | > 100 µM (inactive) |
| COc1ccccc1CNC(=O)CCCNS(=O)(=O)c1ccc2[nH]c(=O)oc2c1 | > 100 µM (inactive) |

From PubChem BioAssay AID588641 (Sanford-Burnham Center for Chemical Genomics, 2011)
